For series [1] the following is noted: in vivo, cited from earlier work.
The nature of series [2]: Determination of suramin in plasma and brain tissue of mice after IP or IN administration. To be noted: male, Fmr1-knockout B6.129P2-Fmr1tm1Cgr/J, mouse, Group 1: IP injection 20 mg/kg weekly for four weeks, read-out: Average Brain Tissue to Plasma Partitioning Ratio. It counts as in vivo, male Fmr1-knockout B6.129P2-Fmr1tm1Cgr/J TG mice.
Protocol: For the study, male Fmr1-knockout B6.129P2-Fmr1tm1Cgr/J TG mice were purchased from Jackson Laboratories, Bar Harbor, Me. These mice were of approximately 8 weeks of age.
Mice were accommodated to the research facility for approximately a week. Body weights of all mice were recorded for health monitoring purposes.
Blood samples were collected from all mice at the end of 12 weeks of age. Brain tissue was harvested from all mice upon sacrifice 13-14 weeks of age. Standard sample preparation and analytical techniques were used to obtain the data.
The data is presented as the average plasma concentration (in both ng/ml and μM) for each animal group the and average brain tissue concentration (in both ng/g and mmol/g). Also presented is the average brain tissue to plasma partition ratio for each group.

Each structure is given as a SMILES string.

As usually defined, the half-life is how long it takes for the measured level to halve. For the molecule `Cc1ccc(C(=O)Nc2ccc(S(=O)(=O)O)c3cc(S(=O)(=O)O)cc(S(=O)(=O)O)c23)cc1NC(=O)c1cccc(NC(=O)Nc2cccc(C(=O)Nc3cc(C(=O)Nc4ccc(S(=O)(=O)O)c5cc(S(=O)(=O)O)cc(S(=O)(=O)O)c45)ccc3C)c2)c1` [suramin], in series [1] (po), the oral bioavailability entry is “not orally bioavailable”. The half-life in series [1] was 41 to 78 days. In addition, the Kp in series [2] is 0.03.

(Values after US20220226268A1, “COMPOSITIONS AND METHODS FOR TREATING CENTRAL NERVOUS SYSTEM DISORDERS” (PaxMedica, Inc., priority 2019, published 2022).)
